Assay [1] relates to Enterococcus faecalis. Briefly: Antibacterial activity against Enterococcus faecalis ATCC 29212 assessed as growth inhibition by CLSI broth microdilution method. Format: functional. In general terms: In broth dilution the organism is exposed to a series of concentrations in liquid medium.
In assay [2] the test system is C6. In words: Cytotoxicity against Rattus norvegicus (rat) C6 cells assessed as cell viability after 24 hr by MTT assay. The assay is classed as functional, cell-based. The note with it: C6, 24 h. On the technique in general: Tetrazolium dyes change colour on reduction, which living cells bring about.
For assay [3], the system named is Pseudomonas aeruginosa. In words: Antibacterial activity against Pseudomonas aeruginosa ATCC 254992 assessed as growth inhibition by CLSI broth microdilution method. Format: functional.
Assay [4] relates to Staphylococcus aureus. Briefly: Antibacterial activity against Staphylococcus aureus NRRL B-767 assessed as growth inhibition by CLSI broth microdilution method. Format: functional.
Assay [5] concerns Escherichia coli. In words: Antibacterial activity against Escherichia coli ATCC 25922 assessed as growth inhibition by CLSI broth microdilution method. Format: functional.
The test system of assay [6] is Candida albicans. Briefly: Antifungal activity against Candida albicans assessed as growth inhibition by CLSI broth microdilution method. The assay is classed as functional.
The subject of assay [7] is C6. In words: Inhibition of nuclear DNA synthesis in Rattus norvegicus (rat) C6 cells assessed as decrease in incorporation of bromo deoxyuridine during S phase of cell cycle at 0.8 to 3.2 uM by colorimetric method. The assay is classed as cell-based. The note with it: TDE = time-dependent effect.
Assay [8] deals with HT-29. Briefly: Inhibition of nuclear DNA synthesis in Homo sapiens (human) HT-29 cells assessed as decrease in incorporation of bromo deoxyuridine during S phase of cell cycle after 24 to 48 hr by colorimetric method. Format: cell-based.
Assay [9] has as its system HT-29. In words: Inhibition of nuclear DNA synthesis in Homo sapiens (human) HT-29 cells assessed as decrease in incorporation of bromo deoxyuridine during S phase of cell cycle at 0.8 to 3.2 uM by colorimetric method. The assay is classed as cell-based. The note with it: TDE = time-dependent effect.
The subject of assay [10] is HT-29. In words: Cytotoxicity against Homo sapiens (human) HT-29 cells assessed as cell viability after 24 hr by MTT assay. Format: functional, cell-based. As to conditions: HT-29, 24 h.
The test system of assay [11] is C6. Briefly: Inhibition of nuclear DNA synthesis in Rattus norvegicus (rat) C6 cells assessed as decrease in incorporation of bromo deoxyuridine during S phase of cell cycle after 24 to 48 hr by colorimetric method. Format: cell-based.
The subject of assay [12] is HT-29. In words: Inhibition of nuclear DNA synthesis in Homo sapiens (human) HT-29 cells assessed as decrease in incorporation of bromo deoxyuridine during S phase of cell cycle at 3.2 uM after 48 hr by colorimetric method relative to untreated control. Format: cell-based.
Assay [13] has as its system C6. Briefly: Inhibition of nuclear DNA synthesis in Rattus norvegicus (rat) C6 cells assessed as decrease in incorporation of bromo deoxyuridine during S phase of cell cycle at 3.2 uM after 48 hr by colorimetric method relative to untreated control. The assay is classed as cell-based.
Assay [14] relates to C6. In words: Inhibition of nuclear DNA synthesis in Rattus norvegicus (rat) C6 cells assessed as decrease in incorporation of bromo deoxyuridine during S phase of cell cycle at 3.2 uM after 24 hr by colorimetric method relative to untreated control. The assay is classed as cell-based.

Converted amounts (≈) assume the structure as drawn. Where only a bound is given, the exact number is not on record here.

With `Cc1cc(NC(=O)CSc2nnnn2C)no1`, the MIC was 400 µg/mL (≈ 1570 µM) in [1]; 100 µg/mL (≈ 393 µM) in [3]; 200 µg/mL (≈ 787 µM) in assay [4]; 400 µg/mL (≈ 1570 µM) in assay [5]; 100 µg/mL (≈ 393 µM) in assay [6]. For the same compound, the IC50 in assay [2] was 1210 nM.
As to `Cc1cc(NC(=O)CSc2nc3ccccc3s2)no1`, the minimum inhibitory concentration (MIC) in assay [1] was 400 µg/mL (≈ 1310 µM); in [3], 200 µg/mL (≈ 655 µM); in [4], 200 µg/mL (≈ 655 µM); in assay [5], 400 µg/mL (≈ 1310 µM); in assay [6] it was 200 µg/mL (≈ 655 µM). Also, the IC50 in assay [2] is 210 nM; in assay [10], 400 nM. Besides, the inhibition entry in [7] is “tde”; in [8], “Dose-dependent effect”; in [9] it was “tde”; in [11] it was “Dose-dependent effect”.
Regarding `Cc1cc(NC(=O)CSc2nc3ccccc3o2)no1`, the inhibition in assay [12] was 80%; in assay [7], “tde”; in [8], “Dose-dependent effect”; in assay [9], “tde”; in assay [13], 70%; in assay [11] it was “Dose-dependent effect”. Moreover, the inhibition in [14] is above 50%. Moreover, the MIC was 400 µg/mL (≈ 1380 µM) in [1]; 200 µg/mL (≈ 691 µM) in [3]; 200 µg/mL (≈ 691 µM) in [4]; 400 µg/mL (≈ 1380 µM) in assay [5]; 200 µg/mL (≈ 691 µM) in [6]. For the same compound, the results for the IC50 in assay [2] and in [10] were 440 nM and 220 nM, respectively.
In the case of `Cc1cc(NC(=O)CSc2nc[nH]n2)no1`, the MIC in assay [1] stood at 400 µg/mL (≈ 1670 µM); in [3], 100 µg/mL (≈ 418 µM); in assay [4] it was 200 µg/mL (≈ 836 µM); in assay [5] it was 400 µg/mL (≈ 1670 µM); in assay [6] it was 100 µg/mL (≈ 418 µM). Besides, the IC50 amounted to 3190 nM in assay [2] and 1130 nM in assay [10].
As for `Cc1cc(NC(=O)CSc2nnc(C)s2)no1`, the MIC in [1] is 400 µg/mL (≈ 1480 µM); in assay [3], 200 µg/mL (≈ 740 µM); in assay [4] it was 200 µg/mL (≈ 740 µM); in assay [5], 400 µg/mL (≈ 1480 µM); in assay [6], 100 µg/mL (≈ 370 µM). For the same compound, the IC50 was determined as 580 nM in assay [2] and 670 nM in assay [10].
For the compound `Cc1cc(NC(=O)CSc2ccccc2)no1`, the minimal inhibitory concentration (MIC) in assay [1] was determined as 400 µg/mL (≈ 1610 µM); in [3], 200 µg/mL (≈ 805 µM); in [4], 200 µg/mL (≈ 805 µM); in assay [5], 400 µg/mL (≈ 1610 µM); in assay [6], 200 µg/mL (≈ 805 µM).
As for `Cc1cc(NC(=O)CSc2nncn2C)no1`, the minimal inhibitory concentration (MIC) is 400 µg/mL (≈ 1580 µM) in [1]; 100 µg/mL (≈ 395 µM) in assay [3]; 200 µg/mL (≈ 790 µM) in assay [4]; 400 µg/mL (≈ 1580 µM) in assay [5]; 100 µg/mL (≈ 395 µM) in assay [6]. Moreover, the IC50 was 1470 nM in [2] and 1020 nM in assay [10].
As for `Cc1cc(NC(=O)CSc2nnnn2-c2ccccc2)no1`, the minimum inhibitory concentration (MIC) in [1] is 400 µg/mL (≈ 1260 µM); in assay [3], 100 µg/mL (≈ 316 µM); in assay [4] it was 200 µg/mL (≈ 632 µM); in [5], 400 µg/mL (≈ 1260 µM); in assay [6] it was 100 µg/mL (≈ 316 µM). In addition, the IC50 in assay [2] amounted to 640 nM; in [10] it was 740 nM.
For the compound `Cc1cc(NC(=O)CSc2nccn2C)no1`, the MIC worked out at 400 µg/mL (≈ 1590 µM) in assay [1]; 200 µg/mL (≈ 793 µM) in [3]; 200 µg/mL (≈ 793 µM) in assay [4]; 400 µg/mL (≈ 1590 µM) in assay [5]; 100 µg/mL (≈ 396 µM) in assay [6]. For the same compound, the IC50 in assay [2] turned out to be 1410 nM; in [10], 1130 nM.
`CC(=O)N1CCN(c2ccc(OCC3COC(Cn4ccnc4)(c4ccc(Cl)cc4Cl)O3)cc2)CC1` (stereo not given) [KETOCONAZOLE]: the minimum inhibitory concentration (MIC) in assay [6] is 100 µg/mL (≈ 188 µM).
For `Cc1cc(NC(=O)CSc2nc3ccccc3[nH]2)no1`, the inhibition was 80% in [12]; “tde” in [7]; “Dose-dependent effect” in assay [8]; “tde” in [9]; 70% in assay [13]; “Dose-dependent effect” in [11]. Also, in assay [14], the inhibition was above 50%. The MIC in assay [1] was 400 µg/mL (≈ 1390 µM); in assay [3] it was 200 µg/mL (≈ 694 µM); in assay [4] it was 200 µg/mL (≈ 694 µM); in assay [5] it was 400 µg/mL (≈ 1390 µM); in assay [6] it was 200 µg/mL (≈ 694 µM). The half-inhibitory concentration (IC50) in assay [2] came out at 100 nM; in assay [10] it was 90 nM.
For the compound `O=C(N[C@H](CO)[C@H](O)c1ccc([N+](=O)[O-])cc1)C(Cl)Cl` [CHLORAMPHENICOL], the minimum inhibitory concentration (MIC) stood at 100 µg/mL (≈ 309 µM) in assay [1], 50 µg/mL (≈ 155 µM) in assay [3], 50 µg/mL (≈ 155 µM) in [4] and 100 µg/mL (≈ 309 µM) in [5].

As a reminder, the MIC is the lowest concentration found to suppress growth. The IC50 is the point on the concentration scale where inhibition reaches its midpoint. Broadly, the inhibition is the change of the read-out against control, counted positive when it falls.
